species on record: Homo sapiens; assay: Ratio of Km for wild type recombinant human glutamate carboxypeptidase 2 to Km for recombinant human glutamate carboxypeptidase 2 K699S mutant

Ratio	SMILES
3	CCCCCCCC(NC(=O)[C@H](CC(=O)O)NC(C)=O)C(=O)O (mixture of isomers)

target: Glutamate carboxypeptidase 2 (Homo sapiens, UniProt Q04609); assay: Inhibition of glutamate carboxypeptidase 2 in human LNCAP cells assessed as glutamate formation using NAAG as substrate after 60 mins by fluorometric analysis; type: cell-based
Sequence (Q04609 whole entry): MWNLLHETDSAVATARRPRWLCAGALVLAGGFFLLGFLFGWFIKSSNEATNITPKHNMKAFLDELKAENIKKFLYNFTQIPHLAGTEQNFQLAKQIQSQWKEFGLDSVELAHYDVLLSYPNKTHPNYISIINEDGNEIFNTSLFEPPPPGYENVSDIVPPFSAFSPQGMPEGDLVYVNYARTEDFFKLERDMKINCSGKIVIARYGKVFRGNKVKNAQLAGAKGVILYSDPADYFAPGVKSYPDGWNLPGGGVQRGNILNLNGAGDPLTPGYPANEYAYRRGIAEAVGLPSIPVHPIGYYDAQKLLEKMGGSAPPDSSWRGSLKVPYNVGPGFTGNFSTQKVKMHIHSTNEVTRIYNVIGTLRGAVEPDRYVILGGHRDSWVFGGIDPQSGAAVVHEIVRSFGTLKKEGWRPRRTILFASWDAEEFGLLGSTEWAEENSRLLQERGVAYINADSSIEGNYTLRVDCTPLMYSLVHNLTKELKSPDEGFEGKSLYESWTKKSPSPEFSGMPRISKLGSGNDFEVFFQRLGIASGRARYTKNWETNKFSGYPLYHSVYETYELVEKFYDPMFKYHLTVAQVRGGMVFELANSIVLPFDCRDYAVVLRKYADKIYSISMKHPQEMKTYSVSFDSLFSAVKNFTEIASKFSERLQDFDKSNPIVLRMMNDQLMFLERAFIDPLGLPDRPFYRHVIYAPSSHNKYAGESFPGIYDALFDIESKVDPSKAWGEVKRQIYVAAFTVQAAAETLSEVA

Ki [nM]	SMILES
20	CCCCC[C@H](NC(=O)N[C@@H](CCCCNC(=O)c1ccc(I)cc1)C(=O)O)C(=O)O
29	CCCCCCC[C@H](NC(=O)N[C@@H](CCCCNC(=O)c1ccc(I)cc1)C(=O)O)C(=O)O
145	CCC[C@H](NC(=O)N[C@@H](CCCCNC(=O)c1ccc(I)cc1)C(=O)O)C(=O)O
325	C[C@H](NC(=O)N[C@@H](CCCCNC(=O)c1ccc(I)cc1)C(=O)O)C(=O)O
72	CCCCCC[C@H](NC(=O)N[C@@H](CCCCNC(=O)c1ccc(I)cc1)C(=O)O)C(=O)O
121	CC[C@H](NC(=O)N[C@@H](CCCCNC(=O)c1ccc(I)cc1)C(=O)O)C(=O)O
56	CCCC[C@H](NC(=O)N[C@@H](CCCCNC(=O)c1ccc(I)cc1)C(=O)O)C(=O)O
4390	O=C(O)CNC(=O)N[C@@H](CCCCNC(=O)c1ccc(I)cc1)C(=O)O

From ChEMBL document CHEMBL1926644, “Novel substrate-based inhibitors of human glutamate carboxypeptidase II with enhanced lipophilicity” (J Med Chem, 2011)
